From patent US20220175882A1, “BETA-CASEIN A2 AND REDUCING OR […] OF LACTOSE INTOLERANCE” (THE A2 MILK COMPANY LIMITED, priority 2013, published 2022)
pIC50: −log10 of the molar value. Entries after “also recorded” stand apart in the source; their conditions may differ. Where a SMILES comes first, the peptide text is derived from it.

Experiments:
[1] = test system: SH-SY5Y human neuronal cells
Description: (§1) Pre-treatment in cells was performed for different time points for 30 min, 4, 24 and 48 h as described previously (Trivedi M., et al.; Mol. Pharm., 2014). SH-SY5Y human neuronal cells and Caco-2 Gut epithelial cells were plated in six-well plates and were pretreated with drugs and incubated for various times prior to measuring uptake. Media were aspirated and cells were washed with 600 μL of HBSS at 37° C. Non-radioactive HBSS was aspirated, replaced with 600 μL of 37° C. HBSS containing [^35S]-cysteine (1 μCl/1 mL), 10 μM unlabelled cysteine and 100 μM DTT, and the cells were incubated for 5 min. The [^35S]-cysteine/HBSS mixture was aspirated and treatment was terminated by two washes with ice-cold HBSS. Cells were then lysed with 600 μL of dH2O, scraped, collected in 1.5 mL microcentrifuge tubes, and sonicated for 10 s. 100 μL of each sample was aliquoted for protein assay. 200 μL of each sample (in triplicate) was aliquoted into scintillation vials with 4 mL of scintillation fluid, vortexed, and counted for radioactivity (normalised against protein content). […] The symbol * used in these figures indicates a statistically significant difference (p<0.05) compared against the untreated control, and the symbol # indicates a statistically significant difference (p<0.005) compared against the untreated control.

[2] = test system: Caco-2 Gut epithelial cells; details: read-out: IC50, inhibition of cysteine uptake; GI epithelial cells (FIG. 4)
Description: as §1

[3] = test system: SH-SY5Y neuronal cells; assay: Intracellular cysteine, GSH and SAM/SAH levels by HPLC with electrochemical detection; type: cell-based, human
Description: Media was aspirated and the cells were washed twice with 1 mL of ice cold HBSS. HBSS was aspirated and 0.6 mL ice cold dH2O was added to the cells. The cells were scraped from the flask/dish and suspended in dH2O. […] The remaining lysate was added to a microcentrifuge tube and an equal volume of 0.4 N perchloric acid was added, followed by incubation on ice for 5 min. Samples were centrifuged at 5,000×g and the supernatant transferred to new microcentrifuge tubes.
The separation of redox and methylation pathway metabolites was accomplished using an Agilent Eclipse XDB-C8 analytical column (3×150 mm; 3.5 μm) and an Agilent Eclipse XDB-C8 (4.6×12.5 mm; 5 μm) guard column. […] The flow rate was initially set at 0.6 mL/min and a step gradient was used: 0-9 min 0% B, 9-19 min 50% B, 19-30 min 50% B. The column was then equilibrated with 5% B for 12 min prior to the next run. Temperature was maintained at 27° C. […] Sample concentrations were determined from the peak areas of metabolites using standard calibration curves and ESA-supplied HPLC software. Sample concentrations were normalised against protein content. In some cases samples were diluted in mobile phase as needed or up to 50 μl of sample was injected to assure that thiol levels were within the range of the standard curve.

[4] = test system: SH-SY5Y cells; assay: DNA methylation by MBD-seq (differentially methylated transcripts); type: cell-based, human; details: cells treated 4 hours with 1 μM BCM-7; FDR<0.1, p<0.05
Description: Global DNA methylation levels induced by BCM-7 were investigated using methyl-CpG binding domain (MBD) protein-enriched genome sequencing (MBD-seq) as described previously (Trivedi M., et al., Mol. Pharm. 2014), whereas mRNA translation microarray data was obtained using Agilent V3 microarray chip, from non-treated control SH-SY5Y cells and cells treated for 4 hours with 1 μM BCM-7.
Genomic DNA was extracted from samples with the Easy DNA kit (Invitrogen K1800-01) using the appropriate protocol for cell lines. Fragmentation was performed on Covaris S2 with the following settings: duty cycle 10%, intensity 5, 200 cycles per burst during 200 sec. Fragments were obtained having an average length of 200 bp. The power mode is frequency sweeping, temperature 6-8° C., water level 12. A maximum of 5 μg was loaded in 130 μl Tris-EDTA in a microtube with AFA intensifier. For samples with less DNA input (down to 500 ng) the DNA was diluted 1:5 in TrisEDTA. DNA with an input from 5-3 μg was analysed on the Agilent 2100 using a DNA 1000 chip. DNA with an input lower than 3 μg was concentrated in a rotary evaporator to 25 μl and the fragment distribution was checked on a high sensitivity DNA chip. Methylated DNA was captured using the MethylCap kit (Diagenode, Belgium). The yield was typically between 0.5 and 8 ng of total captured DNA. Fragments were subsequently sequenced using an Illumina Genome Analyzer II. The concentrations of fragmented and captured DNA were determined on a Fluostar Optima plate reader with the Quant-iT PicoGreen dsDNA Assay Kit (Invitrogen P7589) at 480/520 nm.
To prepare the DNA library, a DNA Sample Prep Master Mix Set 1 (NEB E6040) was used in combination with a Multiplexing Sample Preparation Oligo Kit (96 samples, Illumina PE-400-1001). The entire fragmented DNA was utilised and followed the NEB protocols, using the multiplexing sequencing adapters provided in the Multiplexing Sample Preparation Oligo Kit. Size selection of the library was carried out on a 2% agarose gel (Low Range Ultra Agarose Biorad 161-3107). […] A fragment of 300 bps +/−50 bps was excised and eluted on a Qiagen Gel Extraction Kit column (Qiagen 28704) and eluted in 23 μl EB.
The Illumina library amplification index protocol was used with the following alterations: 22 μl DNA was used and performed 21 cycles run. The sample was purified on a Qiaquick PCR Purification column (Qiagen 28101) and eluted in 50 μl EB, 1:5 diluted, and concentrated in a rotary evaporator to 10 μl. 1 μl was applied to a Agilent 2100 HS DNA chip and the concentration was determined by smear analysis on the Agilent 2100. The samples were diluted to 10 nM. After denaturation with NaOH the samples were diluted to […]. The Paired-End flow cell was prepared according to the Cluster Station User Guide. […]

With `CC[C@H](C)[C@H](NC(=O)[C@@H]1CCCN1C(=O)CNC(=O)[C@@H]1CCCN1C(=O)[C@H](Cc1ccccc1)NC(=O)[C@@H]1CCCN1C(=O)[C@@H](N)Cc1ccc(O)cc1)C(=O)O` [BCM-7, beta-casomorphin-7] (H-YPFPGPI-OH; N-terminus and C-terminus assumed) the “Receptor mediating the effect on cysteine uptake” value ([1]; in presence of CTAP (selective μ-antagonist) or naltrindole (delta antagonist), FIG. 6) was “μ-opioid receptor mediated”, the “Time course of inhibition of cysteine uptake” value ([1]; neuronal cells and GI epithelial cells (FIG. 5), 30 min to 48 h exposure) was “fully developed after 30 minutes and was sustained through 48 hours” and the pIC50 ([1]; read-out: IC50, inhibition of cysteine uptake, neuronal cells (FIG. 4)) was 8.88. The pIC50 [2] was 7.80, the “Cysteine and glutathione (GSH) levels” value ([3]; 30 min, 4 h, 24 h) was “time-dependent decreases” and the “Methylation capacity (SAM/SAH ratio)” value ([3]; different time points (FIG. 7)) was “affected”. For the same compound, the “Differentially methylated transcripts: Galactose metabolism” value [4] was “GALK2 and GALR2 and GALT and GALR1 and CHST1 and NPY and PYY and GKN1”, the “Differentially methylated transcripts: Gastric Acid secretion” value [4] was “SCTR and OXTR and VIPR1 and SST and PPARGC1A and PGC” and the “Differentially methylated transcripts: Lactose Biosynthetic pathway” value [4] was “LGALS12; also recorded: B4GALT1; also recorded: B4GALT2”. The “Differentially methylated transcripts: Lactose metabolism” value [4] was “LCT”.
